Read-outs that look alike come from different tables or passages of the source.
What was measured:
[1] = Cytotoxicity, cell viability assay in normal cells; assay type: cell-based, human; conditions: human, PBMC, fraction of 0 μM control, read-out: relative cell viability (Fig 6a), replicates; for viability at 0.000244141 μM: Con. 0.000244141 μM; for viability at 0.00390625 μM: Con. 0.00390625 μM; for viability at 0.015625 μM: Con. 0.015625 μM; for viability at 0.0625 μM: Con. 0.0625 μM; for viability at 1 μM: Con. 1 μM
From the text: (§1) Human peripheral blood mononuclear cells (PBMCs), normal T-cells and B-cells were provided by the University of Pennsylvania Human Immunology Core (HIC), and Patient-derived xenografts (PDXs) were obtained from Fox Chase Cancer Center (FCCC). These samples were from different unidentified and healthy donors with written, informed consent. All the procedures were approved by the Institutional Review Board (IRB) and conducted according to the declarations of Helsinki protocols.
(§2) 5000 cells as indicated were cultured in 96-well plate with 100 μl of media. […] After treatment, the cells were incubated with 100 μl buffer for 10 min at room temperature following the instructions of CellTiter-Glo kit (Promega, Madison, WI). Luminescence was detected using a multi-mode reader Cytation 5 (BioTek, Winooski, VT). […] Two independent experiments done in duplicates were performed.

[2] = Cytotoxicity, cell viability assay in normal cells; assay type: cell-based; conditions: human, fraction of 0 μM control; for viability at 0.000244141 μM: Con. 0.000244141 μM; for viability at 0.00390625 μM: Con. 0.00390625 μM; for viability at 0.015625 μM: Con. 0.015625 μM; for viability at 0.0625 μM: Con. 0.0625 μM; for viability at 1 μM: Con. 1 μM; for viability at […]: Con. […]
From the text: as §1, §2

Raji cells = experiment: Cell viability assay (CellTiter-Glo luminescence); assay type: cell-based, human; conditions: Homo sapiens; for viability at 0.00244141 µM: read-out: relative cell viability (Fig 6f), replicates, Raji, Con. 0.00244141 μM, fraction of 0 μM control; for viability at 0.0390625 µM: read-out: relative cell viability (Fig 6f), replicates, Raji, Con. 0.0390625 μM, fraction of 0 μM control; for viability at 0.15625 µM: read-out: relative cell viability (Fig 6f), replicates, Raji, Con. 0.15625 μM, fraction of 0 μM control; for viability at 0.625 µM: read-out: relative cell viability (Fig 6f), replicates, Raji, Con. 0.625 μM, fraction of 0 μM control; for viability at 10 µM: read-out: relative cell viability (Fig 6f), replicates, Raji, Con. 10 μM, fraction of 0 μM control; for viability at […]: read-out: relative cell viability (Fig 6f), replicates, Raji, Con. […], fraction of 0 μM control
Method: as §2

SU-DHL-4 cells = experiment: Cell viability assay (CellTiter-Glo luminescence); assay type: cell-based, human; conditions: Homo sapiens, SU-DHL-4, 144 h; for viability at 0.00244141 µM: read-out: relative cell viability (Fig 6d), replicates, SU-DHL-4, Con. 0.00244141 μM, fraction of 0 μM control; for viability at 0.0390625 µM: read-out: relative cell viability (Fig 6d), replicates, SU-DHL-4, Con. 0.0390625 μM, fraction of 0 μM control; for viability at 0.15625 µM: read-out: relative cell viability (Fig 6d), replicates, SU-DHL-4, Con. 0.15625 μM, fraction of 0 μM control; for viability at 0.625 µM: read-out: relative cell viability (Fig 6d), replicates, SU-DHL-4, Con. 0.625 μM, fraction of 0 μM control; for viability at 10 µM: read-out: relative cell viability (Fig 6d), replicates, SU-DHL-4, Con. 10 μM, fraction of 0 μM control
Method: as §2

MOLM14 cells = experiment: Cell viability assay (CellTiter-Glo luminescence); assay type: cell-based; conditions: Homo sapiens; for viability at 0.00244141 µM: MOLM-14, read-out: relative cell viability (Fig 6e), replicates, MOLM14, Con. 0.00244141 μM, fraction of 0 μM control; for viability at 0.0390625 µM: MOLM-14, read-out: relative cell viability (Fig 6e), replicates, MOLM14, Con. 0.0390625 μM, fraction of 0 μM control; for viability at 0.15625 µM: MOLM-14, read-out: relative cell viability (Fig 6e), replicates, MOLM14, Con. 0.15625 μM, fraction of 0 μM control; for viability at 0.625 µM: MOLM-14, read-out: relative cell viability (Fig 6e), replicates, MOLM14, Con. 0.625 μM, fraction of 0 μM control; for viability at 10 µM: MOLM-14, read-out: relative cell viability (Fig 6e), replicates, MOLM14, Con. 10 μM, fraction of 0 μM control; for viability at […]: MOLM-14, read-out: relative cell viability (Fig 6e), replicates, MOLM14, Con. […], fraction of 0 μM control
Method: as §2

[3] = normal B-cells from healthy donors, B-cells, read-out: relative cell viability (Fig 6c), replicates
[4] = normal T-cells from healthy donors, T-cells, read-out: relative cell viability (Fig 6b), replicates

| Compound | viability at 0.00390625 μM [1] [%] | viability at 0.015625 μM [1] [%] | viability at 0.0625 μM [1] [%] | viability at 1 μM [1] [%] | viability at 0.000244141 μM [2, 3] [%] | viability at 0.00390625 μM [2, 3] [%] | viability at 0.015625 μM [2, 3] [%] | viability at 0.0625 μM [2, 3] [%] | viability at 1 μM [2, 3] [%] | viability at 0.000244141 μM [2, 4] [%] | viability at 0.00390625 μM [2, 4] [%] | viability at 0.015625 μM [2, 4] [%] | viability at 0.0625 μM [2, 4] [%] | viability at 1 μM [2, 4] [%] | viability at 0.00244141 µM (Raji cells) [%] | viability at 0.15625 µM (Raji cells) [%] | viability at 0.15625 µM (SU-DHL-4 cells) [%] | viability at 0.625 µM (SU-DHL-4 cells) [%] | viability at 10 µM (SU-DHL-4 cells) [%] | viability at 0.625 µM (MOLM14 cells) [%] | other results |
| --- | --- | --- | --- | --- | --- | --- | --- | --- | --- | --- | --- | --- | --- | --- | --- | --- | --- | --- | --- | --- | --- |
| COc1c(OCCCN2CCOCC2)ccc2c1N=C(NC(=O)c1cnc(N)nc1)N1CCN=C21 [Copanlisib] | 106 | 92.8 | 73 | 61.4 | 90.1 | 95.7 | 91.4 | 79.9 | 52.6 | 95.3 | 102 | 94.4 | 107 | 79.9 | 94.7 | 102 | 42.6 | 12.3 | 5.12 | 18.1 | viability at 0.000244141 μM [1]: 104%; viability at 0.0390625 µM (Raji cells): 91.7%; viability at 0.625 µM (Raji cells): 67.9%; viability at 10 µM (Raji cells): 7.75%; viability at 0.00244141 µM (SU-DHL-4 cells): 122%; viability at 0.0390625 µM (SU-DHL-4 cells): 69%; viability at 0.00244141 µM (MOLM14 cells): 89.1%; viability at 0.0390625 µM (MOLM14 cells): 59%; viability at 0.15625 µM (MOLM14 cells): 58.4%; viability at 10 µM (MOLM14 cells): 4.25% |
| C[C@H](Nc1ncnc2nc[nH]c12)c1cc2cccc(Cl)c2c(=O)n1-c1ccccc1 [Duvelisib] | 94.6 | 101 | 92.6 | 80.3 | 94.3 | 103 | 80.4 | 104 | 72.7 | 108 | 100 | 99.3 | 102 | 93.2 | 94.9 | 94.1 | 85.8 | 75.1 | 27.4 | 125 | viability at 0.000244141 μM [1]: 103%; viability at […] [2, 4]: 103%; viability at 0.0390625 µM (Raji cells): 112%; viability at 0.625 µM (Raji cells): 99.1%; viability at 10 µM (Raji cells): 64.1%; viability at […] (Raji cells): 104%; viability at 0.00244141 µM (SU-DHL-4 cells): 103%; viability at 0.0390625 µM (SU-DHL-4 cells): 99.8%; viability at 0.0390625 µM (MOLM14 cells): 122%; viability at 0.15625 µM (MOLM14 cells): 109%; viability at 10 µM (MOLM14 cells): 24.1%; viability at […] (MOLM14 cells): 106% |
| C[C@H](NC(=O)c1c(N)nn2cccnc12)c1cc2cccc(C#Cc3cnn(C)c3)c2c(=O)n1-c1ccccc1 [IPI-549] | 98.8 | 104 | 102 | 99.1 | 107 |  | 118 | 105 | 93.7 | 108 | 107 | 109 | 83.1 | 115 | 95.4 | 113 | 115 | 94.2 | 30.8 | 93.4 | viability at […] [2, 3]: 122%; viability at […] [2, 4]: 109%; viability at 0.0390625 µM (Raji cells): 108%; viability at 0.625 µM (Raji cells): 122%; viability at 10 µM (Raji cells): 55%; viability at […] (Raji cells): 98.4%; viability at 0.00244141 µM (SU-DHL-4 cells): 94.9%; viability at 0.00244141 µM (MOLM14 cells): 121%; viability at 10 µM (MOLM14 cells): 23.9%; viability at […] (MOLM14 cells): 119% |
| CC[C@H](Nc1ncnc2[nH]cnc12)c1nc2cccc(F)c2c(=O)n1-c1ccccc1 [Idelalisib] | 99.7 | 111 | 83.8 | 89.1 | 101 | 103 | 103 |  | 81.2 | 105 | 102 | 98.9 |  | 98.7 | 111 | 114 | 99.8 | 87.1 | 33.1 | 113 | viability at 0.0390625 µM (SU-DHL-4 cells): 96.2%; viability at […] (MOLM14 cells): 120% |

From paper PMC7253423, “Quassinoid analogs with enhanced efficacy for treatment of hematologic malignancies target the PI3Kγ isoform” (Communications Biology, 2020)
